These results are taken from patent US6043365A, “Preparation of 2-amino-7-(1-substituted-2-hydroxyethyl)-3, 5-dihydropyrrolo[3,2-d]pyrimidin-4-ones” (Novartis AG, priority 1998, dated 2000).

The IC50 is the point on the concentration scale where inhibition reaches its midpoint.

In test [1] the target is T1, purine nucleoside phosphorylase (PNP) (Bos taurus, UniProt P55859).
T1 construct: Calf spleen PNP is used as the enzyme source; from tissue; host or cells: calf spleen
T1 sequence (P55859 1-289): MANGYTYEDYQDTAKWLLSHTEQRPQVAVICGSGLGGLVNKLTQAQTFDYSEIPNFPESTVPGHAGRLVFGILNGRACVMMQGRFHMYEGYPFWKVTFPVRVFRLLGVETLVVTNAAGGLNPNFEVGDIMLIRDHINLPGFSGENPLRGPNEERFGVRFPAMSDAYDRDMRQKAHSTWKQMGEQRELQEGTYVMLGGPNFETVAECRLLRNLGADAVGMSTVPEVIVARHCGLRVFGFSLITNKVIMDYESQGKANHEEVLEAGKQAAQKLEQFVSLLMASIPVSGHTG
Nature of the test: PNP inhibition in vitro, enzymic determination of inorganic phosphate (PNP/xanthine oxidase), calf spleen PNP. The class given is biochemical. The conditions noted are these: 1 mM phosphate concentration; calf spleen PNP; substrate inosine. The protocol:
PNP inhibition can be measured by measuring the formation of [^14- C]-[…] [Biomedicine, 33, 39 (1980)] using calf spleen as the enzyme source and 1 or 50 mM phosphate. Results are expressed as IC50 values, corresponding to the concentration of compound required to achieve a 50% reduction of the formation of hypoxanthine.
PNP inhibition can also be determined in vitro as follows: An enzymic method for the determination of inorganic phosphate (see Chem. Pharm. Bull., 1981, 29:1451-5), based on the principle of forming hydrogen peroxide with purine nucleoside phosphorylase (PNP) and xanthine oxidase, is used to calorimetrically measure the degree of linkage between enzyme and substrate (inosine). Calf spleen PNP is used as the enzyme source. The IC50 values for the compounds studied are determined graphically at two phosphate concentrations (1 and 50 mM) from a plot of percent inhibition versus compound concentration.

A further test deals with CCRF-CEM cells. The test is described as follows: CCRF-CEM cell assay: potentiation of the cell growth inhibitory activity (cytotoxicity) of 2'-deoxyguanosine (d-Guo). The class given is cell-based. The note with it: Homo sapiens, d-Guo 10 μM, 72 hours. On the procedure:
The selective suppression of spontaneous T-cell proliferation in vitro is measured by the potentiation of the cell growth inhibitory activity (cytotoxicity) of 2'-deoxyguanosine (d-Guo) by the compounds of the invention, determined as follows: Human CCRF-CEM cells are grown in RPMI-1640 medium. To suspension cultures of these cells, d-Guo at a fixed concentration (10 μM) and the candidate PNP inhibitor at varied concentrations are added and the number of cells are determined in a Coulter counter 24, 48, and 72 hours thereafter. […] This method is similar to that previously used to determine the effectiveness of PNP inhibitors on potentiation of the toxicity of d-Guo. [See D. A. Shewach et al., Cancer Res., 46, 519 (1986); J. C. Sircar et al., Agents and Actions, 21, 253 (1987), also Methods in Pharmacology, D. M. Paten, ed. 1985, pp. 147-162].

Test [2] relates to purine nucleoside phosphorylase (PNP). Nature of the test: PNP inhibition in vivo: plasma inosine level in mice after oral dose. The conditions noted are these: at a dose of e.g. 10 mg/Kg p.o. The protocol: Briefly, mice are treated orally with the PNP inhibitor suspended in fortified cornstarch (3% cornstarch suspension in water with 0.33% Tween 80 and 5% PEG 400) at a final volume of 10 ml/kg. One or more hours after a single oral dose of compound, the mice are bled by cardiac puncture into 25 U/ml heparin to obtain plasma. The samples are analyzed for both inosine and drug levels by a gradient reverse-phase high performance liquid chromatography (HPLC) method (see Anal Chem, 1977, 49:2237-41). Quantitation is performed using an internal standard method with 2',3'-dideoxyinosine (DDI) as the internal standard.

Test [3] deals with collagen II induced arthritis. The test is described as follows: Antiarthritic activity, collagen II induced arthritis in mice model. The class given is in vivo, DBA/1LacJ female mice. The note with it: 20 mg/Kg/day; orally once daily, day 1 through day 42. The protocol:
The antiarthritic activity can be determined in the collagen II induced arthritis in mice model. DBA/1LacJ female mice, 6-8 weeks old, are immunized with 100 μg of chicken type II collagen emulsified in Freund's complete adjuvant (FCA) by injecting at the base of the tail on day 0. On day 17 after collagen injection, the immune response to type II collagen is boosted with a subcutaneous injection of 200 μg LPS solubilized in PBS. Paws are examined on days 17, 21, 24, 28, 31, 35, and 42 and scored for the symptoms of arthritis based on criteria such as inflammation, swelling and ankylosis. Compounds are suspended in corn starch vehicle and administered orally to mice once daily beginning on day 1 and continuing through day 42.

The next test deals with transplant rejection. The test is described as follows: Protection against transplant rejection, mouse tail skin transplantation procedure. The class given is in vivo, mouse (C57BL/10-SnJ and B10.BR/SgSnJ). An excerpt:
Protection against transplant rejection can be determined in a mouse tail skin transplantation procedure.
Mice are anesthetized with tribromoethanol i.p. injection according to the method of Papaioannou and Fox (Lab. Animal Science 1993;43:189-92). The mouse tail skin transplant rejection model is a modification of that described by Baily and Usama, (Transpl. Bull. 1960;7:424-5). Four skin grafts per mouse are exchanged between strains [C57BL/10-SnJ (H-2K^b) and B10.BR/SgSnJ (H-2K^k)] at surgery (d0). Fitted skin grafts are made with a scalpel, and tail graft sites are protected with tubing for 2 days following surgery. Mouse tails are evaluated at day 7 for missing grafts. Only those graft sites that have patent grafts at day 7 are evaluated at later scoring intervals. Grafts are scored numerically for signs of rejection at ~weekly scoring intervals starting day 14. Dose-group mean graft scores are compared statistically.

SMILES strings stand for the structures.

Regarding `Nc1nc2c([C@@H](CO)c3ccccc3F)c[nH]c2c(=O)[nH]1` [Example 1, 2-amino-7-[1-(2-fluorophenyl)-2(R)-hydroxyethyl]-3,5-dihydro-4H-pyrrolo[3,2-d]pyrimidin-4-one], the IC50 in test [1] is around 10 nM; in the test with CCRF-CEM cells, around 75 nM. Besides, in test [2], the “plasma level of inosine” value is listed as “significant increase in the plasma level of inosine”. In test [3], the antiarthritic activity result was “effective”. Besides, in the test with transplant rejection (50 mg/Kg/day, mouse), the “protection against transplant rejection” value is reported as “effective in protecting against transplant rejection”. In addition, the “transplant rejection model, combination with cyclosporin” value with transplant rejection (combination of compound and cyclosporin vs either alone) is listed as “superior to either cyclosporin or the PNP inhibitor alone”.

`Nc1nc2c([C@@H](CO)c3ccccc3)c[nH]c2c(=O)[nH]1` [Example 3f, 2-Amino-7-(2(S)-hydroxy-1-phenylethyl)-3,5-dihydro-4H-pyrrolo[3,2-d]-pyrimidin-4-one]: the IC50 was around 10 nM in test [1] and around 100 nM in the test on CCRF-CEM cells. In test [2], the “plasma level of inosine” value is “significant increase in the plasma level of inosine”.
